In PubChem BioAssay (NCI):
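Where inhibition never reached the appropriate level, the endpoint shown equals the highest concentration tested. Otherwise, values were interpolated linearly from a five-concentration, 48-hour dose response in 96-well plates. The concentration for 50% growth inhibition is given as GI50. The concentration for full growth arrest is given as TGI.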

Legend:
Experiment in all cases: NCI-60 cell line screen, 48 h; in the data active = GI50 below about 0.43 µM; inactive = the rest
[1] = test system: 786-0 renal
[2] = test system: A498 renal
[3] = test system: A549 NSCLC
[4] = test system: ACHN renal
[5] = test system: BT-549 breast
[6] = test system: CAKI-1 renal
[7] = test system: CCRF-CEM leukemia
[8] = test system: DU-145 prostate
[9] = test system: EKVX NSCLC
[10] = test system: HCT-116 colon
[11] = test system: HL-60(TB) leukemia
[12] = test system: HOP-62 NSCLC
[13] = test system: HS 578T breast
[14] = test system: HT29 colon
[15] = test system: IGROV1 ovarian
[16] = test system: K-562 leukemia
[17] = test system: MALME-3M melanoma
[18] = test system: MCF7 breast
[19] = test system: MDA-MB-231 breast
[20] = test system: MOLT-4 leukemia
[21] = test system: NCI-H226 lung
[22] = test system: NCI-H23 lung
[23] = test system: NCI-H460 lung
[24] = test system: NCI-H522 lung
[25] = test system: NCI/ADR-RES ovarian
[26] = test system: OVCAR-3 ovarian
[27] = test system: OVCAR-4 ovarian
[28] = test system: OVCAR-8 ovarian
[29] = test system: PC-3 prostate
[30] = test system: RPMI-8226 leukemia
[31] = test system: RXF 393 renal
[32] = test system: SF-268 CNS
[33] = test system: SF-295 CNS
[34] = test system: SF-539 CNS
[35] = test system: SK-MEL-2 melanoma
[36] = test system: SK-MEL-5 melanoma
[37] = test system: SK-OV-3 ovarian
[38] = test system: SN12C renal
[39] = test system: SNB-19 CNS
[40] = test system: SNB-75 CNS
[41] = test system: SR leukemia
[42] = test system: T-47D breast
[43] = test system: TK-10 renal
[44] = test system: U251 CNS
[45] = test system: UO-31 renal

COC(=O)c1ccc2c(c1)nc(-c1cc3ccccc3[nH]c1=O)n2-c1cc(C(C)(C)C)[nH]n1
> 95.1 µM: TGI [6]
inactive: GI50 [1] 3.79 µM | GI50 [2] 3.99 µM | GI50 [3] > 100 µM | GI50 [4] > 100 µM | GI50 [5] 4.88 µM | GI50 [6] 1.24 µM | GI50 [7] 0.853 µM | GI50 [8] 2.55 µM | GI50 [9] 10 µM | GI50 [10] 1.74 µM | GI50 [11] 2.17 µM | GI50 [12] 0.996 µM | GI50 [13] 0.574 µM | GI50 [14] 1.34 µM | GI50 [15] 1.23 µM | GI50 [16] 1.7 µM | GI50 [17] 2.63 µM | GI50 [18] > 100 µM | GI50 [19] 4.13 µM | GI50 [20] 0.793 µM | GI50 [21] 16.5 µM | GI50 [22] 2.64 µM | GI50 [23] 0.784 µM | GI50 [24] 1.19 µM | GI50 [25] 2.97 µM | GI50 [26] 4.5 µM | GI50 [27] > 100 µM | GI50 [28] 2 µM | GI50 [29] 2.27 µM | GI50 [30] 0.443 µM | GI50 [31] 2.83 µM | GI50 [32] 2.24 µM | GI50 [33] 2.14 µM | GI50 [34] > 20.3 µM | GI50 [35] 2.82 µM | GI50 [36] 2.61 µM | GI50 [37] > 53.4 µM | GI50 [38] > 23.7 µM | GI50 [39] 7.59 µM | GI50 [40] 5.42 µM | GI50 [41] 12.8 µM | GI50 [42] > 100 µM | GI50 [43] 40 µM | GI50 [44] 0.987 µM | GI50 [45] 0.526 µM
> 74.7 µM: TGI [43]
> 100 µM: TGI [1] | TGI [3] | TGI [4] | TGI [7] | TGI [8] | TGI [9] | TGI [10] | TGI [11] | TGI [12] | TGI [14] | TGI [15] | TGI [16] | TGI [17] | TGI [18] | TGI [19] | TGI [20] | TGI [21] | TGI [22] | TGI [23] | TGI [24] | TGI [25] | TGI [26] | TGI [27] | TGI [28] | TGI [29] | TGI [34] | TGI [35] | TGI [36] | TGI [37] | TGI [38] | TGI [39] | TGI [41] | TGI [42] | TGI [44] | TGI [45]
41.5 µM: TGI [40]
66.2 µM: TGI [5]
> 50.5 µM: TGI [33]
> 58.4 µM: TGI [13]
> 29.8 µM: TGI [31]
> 95.9 µM: TGI [32]
> 87.7 µM: TGI [2]
